The test system of the assay is Corynespora cassiicola. Briefly: Corynespora cassiicola (target leaf spot) growth inhibition in nutrient broth, microtiter plate. In kind it is cell-based. The conditions noted are these: PDB broth, 24° C., photometric at 620 nm after 3-4 days, vs untreated check, read-out: % control of Corynespora cassiicola (inhibition of growth). The method, then:
Example 1: Corynespora Cassiicola (Target Leaf Spot) Conidia of the fungus from cryogenic storage were directly mixed into nutrient broth (PDB potato dextrose broth). A DMSO solution of the test compounds was placed into a microtiter plate (96-well format) and the nutrient broth containing the fungal spores was added to it. The test plates were incubated at 24° C. and the inhibition of growth (% control of Corynespora cassiicola) was determined photometrically after 3-4 days at 620 nm. The activity of a compound is derived by comparing the inhibition of growth in the treated test solution to the growth in the untreated check. The concentration of the compounds was 6.7, 2.2, 0.74, 0.25, and 0.082 ppm.

The term inhibition denotes the drop in the measured response relative to a control, in per cent. Take `CC1(C)N=C(c2cnc3c(F)cccc3c2)c2ccsc2C1(F)F` [Ic, 7,7-Difluoro-4-(8-fluoro-3-quinolyl)-6,6-dimethyl-6,7-dihydro-1-thia-5-azaindene]: the inhibition at 0.25 ppm was ≥ 20%, the inhibition at 0.74 ppm was ≥ 50%, the inhibition at 2.2 ppm is ≥ 70% and the inhibition at 6.7 ppm is ≥ 70%.
For the compound `Cc1cc(C2=NC(C)(C)C(F)(F)c3ccccc32)cnc1C(F)F` [la, 5-(4,4-Difluoro-3,3-dimethyl-3,4-dihydro-1-isoquinolyl)-2-(difluoromethyl)-3-methylpyridine], the inhibition at 0.25 ppm is ≥ 20%, the inhibition at 0.74 ppm was ≥ 50%, the inhibition at 2.2 ppm is ≥ 70% and the inhibition at 6.7 ppm was ≥ 70%.

The values are drawn from patent US20230112306A1, “METHODS OF CONTROLLING OR PREVENTING INFESTATION OF SOYBEAN PLANTS BY THE PHYTOPATHOGENIC MICROORGANISM CORYNESPORA CASSIICOLA” (SYNGENTA CROP PROTECTION AG, priority 2020, published 2023).
